The nature of data set [1]: DANCE-Pilot study and DANCE trial: adventitial dexamethasone after femoropopliteal revascularization. Format: in vivo, human. The following applies: for transient hyperglycemia event: controlled with insulin; for Rate of CD-TLR: 12 months. The source says:
Provided herein are examples of in vivo human clinical trials using the Bullfrog Micro-Infusion Device for local delivery of dexamethasone. The Bullfrog Micro-Infusion Device was successfully used in the DANCE (Dexamethasone to the Adventitia to Enhance Clinical Efficacy After Femoropopliteal Revascularization)-Pilot study and the DANCE trial in superficial femoral and popliteal arteries.
In the DANCE-Pilot study, 20 subjects were enrolled and treated with the Bullfrog device delivery of dexamethasone sodium phosphate. In the DANCE trial, 283 limbs were enrolled and treated with the Bullfrog device delivery of dexamethasone sodium phosphate. In 3.3% of the subjects enrolled in DANCE, there was no detected contrast medium distribution in the adventitia and perivascular tissues. In one subject in DANCE-Pilot and one subject in DANCE, there was a transient hyperglycemia event reported, which was treated and controlled with insulin therapy. There were no other unexpected adverse device events or suspected unexpected severe adverse reactions reported in the study.
The single-arm DANCE (Dexamethasone to the Adventitia to Enhance Clinical Efficacy After Femoropopliteal Revascularization) trial enrolled 262 subjects (283 limbs) with symptomatic peripheral artery disease (Rutherford category 2 to 4) receiving percutaneous transluminal angioplasty (PTA) (n=124) or atherectomy (ATX) (n=159) in femoropopliteal lesions <15 cm in length. A mixture of dexamethasone/contrast medium (80%/20%) was delivered to the adventitia and perivascular tissues surrounding target lesions in all subjects. Thirty-day assessments included major adverse limb events (MALE) and post-operative death. Twelve-month assessments included primary patency, freedom from clinically driven target lesion revascularization (CD-TLR), Rutherford scoring, and walking impairment questionnaire. […] In the secondary analysis, both the ATX and PTA DANCE groups were noninferior to the 72.3% contemporary performance goal, whether examining the PP (P<0.001 and P<0.004, respectively) or ITT (P<0.002 and P<0.005, respectively) population.

The conditions of data set [2]: 10 mg equivalent dexamethasone phosphate in 3 ml, after angioplasty, 14 days.
Procedure: A first study was designed to compare a high dose of dexamethasone (10 mg equivalent dose of dexamethasone phosphate) delivered in 3 ml volume to the perivascular tissue of porcine AV grafts (6 mm ringed PTFE) implanted between femoral artery and femoral vein pairs, bilaterally. Fourteen days after graft implantation, percutaneous transluminal angioplasty (PTA) was performed (7 mm balloon, 16 atmosphere inflation pressure) at two sites per graft: across the graft-vein anastomosis (GVA) and in the proximal vein (PV). Perivascular infusion of either dexamethasone (6 grafts) or placebo (2 grafts) was administered following the PTA procedure. Infusions of 3m1 were always consistent between the 2 grafts in each animal. Animals were euthanized 14 days after the treatment procedure and the graft-vein anastomosis and proximal vein were analyzed by histopathology and histomorphometry to determine adverse effects from the high dose of dexamethasone. The study was not powered to identify differences in stenosis but rather was aimed at determining dexamethasone local toxicity.
For data set [3] the following is noted: in vivo.
Procedure: (§1) A second study was designed to assess the local toxicity of dexamethasone administered via the Bullfrog Micro-Infusion Device in a swine model. The following objectives were met in the study: In each of four subjects, confirmation of the safety of up to 16 mg dexamethasone delivered to the adventitia and perivascular tissue of each of 4 peripheral arteries and 6.4 mg dexamethasone delivered to the adventitia and perivascular tissue of each of 3 coronary arteries (at 3.2 mg/mL with 20% contrast), as compared to normal untreated tissue in two untreated subjects by clinical pathology and histopathology examination, at 28±3 days.
The subject of the next data set is P-selectin. The conditions noted are these: cited from earlier work.
A further data set concerns vWF. The conditions noted are these: at 24 hours and 48 hours with dexamethasone treatment; cited from earlier work.
Data set [4] is described as follows: Local toxicity of dexamethasone administered via Bullfrog device to peripheral and coronary arteries in swine. The conditions noted are these: 28±3 days.
Procedure: as §1

SMILES strings stand for the structures. Where two headings read alike, the source gives them in different places.

With `C[C@@H]1C[C@H]2[C@@H]3CCC4=CC(=O)C=C[C@]4(C)[C@@]3(F)[C@@H](O)C[C@]2(C)[C@@]1(O)C(=O)COP(=O)(O)O` [dexamethasone sodium phosphate], the “other unexpected adverse device events or suspected unexpected severe adverse reactions” value in data set [1] (DANCE-Pilot and DANCE) is recorded as “no other”. The transient hyperglycemia event result is on record as “one subject” in data set [1] (DANCE-Pilot, 20 subjects) and “one subject” in data set [1] (DANCE).
For the compound `C[C@@H]1C[C@H]2[C@@H]3CCC4=CC(=O)C=C[C@]4(C)[C@@]3(F)[C@@H](O)C[C@]2(C)[C@@]1(O)C(=O)CO` [dexamethasone, 9-fluoro-11(beta),17,21-trihydroxy-16(alpha)-methylpregna-1,4-diene-3,20-dione], in data set [1] (DANCE trial), the “30-day MALE+post-operative death events” value is “no 30-day MALE+post-operative death events”. Besides, the “Rate of CD-TLR” value in data set [1] (DANCE-ATX, ITT) was 13.1%; in data set [1] (DANCE-ATX, per-protocol), 10.0%; in data set [1] (DANCE-PTA, ITT), 13.7%; in data set [1] (DANCE-PTA, per-protocol), 11.0%. Moreover, the “primary patency rate at 12 months” value was found to be 74.8% in data set [1] (DANCE-ATX, intent-to-treat); 78.4% in data set [1] (DANCE-ATX, per-protocol); 74.3% in data set [1] (DANCE-PTA, intent-to-treat); 75.5% in data set [1] (DANCE-PTA, per-protocol). The dose-limiting toxicity result in data set [1] (in vivo) is listed as “No dose-limiting toxicity”. In data set [2], the “histopathology findings of femoral GVA vs perivascular placebo” value is listed as “no differences”. Further, the “adverse or toxicologically meaningful changes in the treated vessels” value in data set [3] is reported as “no adverse or toxicologically meaningful changes”. Moreover, the “P-selectin, time of elevation” value in the data set on P-selectin (dexamethasone treatment) was 48 h. The P-selectin levels result was “induced elevated P-selectin levels” in the data set with P-selectin (high dose 1 mg/kg bid×2 days, healthy males) and “did not induce elevated P-selectin levels” in the data set on P-selectin (low dose 0.04 mg/kg bid×2 days). In the data set with vWF, the vWF result is recorded as “elevated”. Further, in data set [4], the “gross necropsy, injury to the treatment areas” value is recorded as “no evidence of injury”. Besides, in data set [4], the “local toxicity to the treated vessels (microscopic evaluation)” value is listed as “no evidence of local toxicity”. Besides, the “local vascular irritation upon injection” value in data set [4] was “no evidence of local vascular irritation”. Also, in data set [4], the “peripheral organs abnormalities associated with test article” value was “did not reveal any abnormalities”. Also, the “thrombosis or stenosis of treated vessels” value in data set [4] is “no evidence of thrombosis or stenosis”. The “adverse postoperative events leading to early death” value in data set [4] (up to 83.2 mg per subject) is given as “None of the animals”.

The values above are taken from patent publication US20220105108A1, “PERIVASCULAR ANTI-INFLAMMATORY THERAPY FOR VENOUS THROMBOSIS” (Mercator MedSystems, Inc., priority 2020, published 2022).
